Reference: US20060167037A1, “Combinational radiotherapy and chemotherapy compositions and methods” (priority 2003, published 2006)

Key:
Assay type in all cases: cell-based
[1] = test system: cancer cells; assay: Synergistic interaction with death receptor ligands and growth receptor inhibitors; conditions: growth receptor inhibitors eg. of EGF, PDGF, FGF, TNF and IGF receptors
[2] = test system: cancer cell lines to human breast, prostate, ovarian, pancreatic and cervical cancers; assay: Radiosensitisation of cancer cell lines on culture plates (cell viability by CellTiter, apoptosis by Hoechst 33342 dye); conditions: pre-treatment (1 day and 8 hour) and sequential/post-treatment (−30 min/+4 h) regimes, at 2 and 10 μM
Protocol: The effect of a selection of isoflavonoid compounds on various cancer cell lines subjected to radiotherapy was assessed on culture plates. Cell viability was determined using CellTiter®. Apoptosis was evaluated using Hoechst 33342 dye.
32 and 39 (at 2 and 10 μM).

[3] = test system: cancer cells; assay: Synergy with the chemotherapeutics cisplatin and gemcitabine

Structure (SMILES) | synergistic interaction with interferon-gamma, Fas ligand, TRAIL ligand, growth receptor inhibitors [1] | radiosensitisation of cancer cell lines subjected to radiotherapy [2] | synergy with the effect of chemotherapeutics such as cisplatin and gemcitabine [3]
COc1ccc(C2c3ccc(O)cc3OCC2c2ccc(O)cc2)cc1 (stereo not shown) [compound 32] | synergistic interaction | radiosensitised | 
Oc1ccc(C2=Cc3ccc(O)cc3OC2)cc1 [Cpd. 12, dehydroequol] | synergistic interaction | radiosensitised | synergise
COc1ccc(C2c3ccc(O)c(C)c3OCC2c2ccc(O)cc2)cc1 (stereo not shown) [compound 39] | synergistic interaction | radiosensitised | 
